Data set [1] can be described thus: Absorption and emission spectra of the dyes (λabs/λem in H2O). The format is physicochemical. As to conditions: Table 5, coumarin-based fluorescent groups. The text has this:
For compounds of Formula II, it is well known to a person of skill in the art to select the bridging unit Y, in combination with a specific embodiment of a moiety of Formula F, in combination with a specific embodiment of moiety Y, and in combination with specific substituents such that the maximal fluorescence excitation wavelength of the compound ranges from about 350 to about 1200 nm. Standard analysis well known in the art is used to obtain the absorption and emission spectra of the dyes in order to ascertain the absorption maximal wavelength and the maximal fluorescence emission wavelength. Any combinations of the above described groups may be used to form a compound of the invention with a maximal fluorescence excitation wavelength of about 550 nm, about 560 nm, about 570 nm, about 580 nm, about 590 nm, about 600 nm, about 610 nm, about 620 nm, about 615 nm, about 620 nm, about 625 nm, about 630 nm, about 635 nm, about 640 nm, about 650 nm, about 655 nm, about 660 nm, about 665 nm, about 670 nm, about 675 nm, about 680 nm, about 685 nm, about 690 nm, about 695 nm, about 700 nm, about 705 nm, about 710 nm, about 715 nm, about 720 nm, about 725 nm, about 730 nm, about 735 nm, about 740 nm, about 745 nm, about 750 nm, about 755 nm, about 760 nm, about 765 nm, about 770 nm, about 775 nm, about 780 nm, about 790 nm, about 800 nm, about 810 nm, about 820 nm, about 830 nm, about 840 nm, about 850 nm, about 860 nm, about 870 nm, about 880 nm, about 890 nm, about 900 nm, about 910 nm, about 920 nm, about 930 nm, about 940 nm, about 950 nm, about 960 nm, about 970 nm, about 980 nm, about 990 nm, about 1000 nm, about 1020 nm, about 1040 nm, about 1060 nm, about 1080 nm, about 1100 nm, about 1120 nm, about 1140 nm, about 1160 nm, about 1180 nm, or about 1200 nm. The moieties described above may be used in any combination. The maximal fluorescence excitation wavelength of the dye is typically the wavelength at which the dye has a maximal absorption or maximal optical density, which excites the dye to fluoresce. In some embodiments, the compound of Formula II has an absorption maximal wavelength at >670 nm. In one embodiment, the absorption maximal wavelength is at >700 nm. According to another embodiment, the absorption maximal wavelength is at >800 nm.

Data set [2] is described as follows: Total fluorescence vs. degree of labeling (DOL) of protein dye-conjugates. The format is physicochemical. The note with it: goat anti-mouse IgG conjugates, excited at 350 nm, compared to AMCA; FIG. 7. As for the experimental part:
Fluorescent conjugates of goat anti-mouse IgG (GAM), goat anti-rabbit IgG (GAR), and streptavidin were prepared from the respective proteins and a reactive dye, following published procedures (U.S. Pat. No. 6,974,873; Haugland et al., Meth. Mol. Biol. 45, 205 (1995); Haugland et al., Meth. Mol. Biol. 45, 223 (1995); Haugland et al., Meth. Mol. Biol. 45, 235 (1995); Haugland et al., Current Protocols in Cell Biology, 16.5.1-16.5.22 (2000)). Briefly, an antibody or streptavidin at 1 mg/mL in […] pH 8.5 sodium bicarbonate buffer was mixed with one of the reactive dye at various ratio of dye molecules/protein molecule. After incubating for about an hour at room temperature, the reaction mixture was separated by gel filtration using Sephadex G-25 equilibrated with PBS (pH 7.4). The various dye molecules/protein ratios used in the labeling reactions produced protein conjugates with different degree of dye labeling (DOL) as listed in Table 7 below for each dye/protein pair.
The fluorescence of the conjugates was measured using a JACSO fluorescence spectrophotometer and was then plotted against the DOL to give FIGS. 4-7.
A set of goat anti-mouse IgG conjugates were prepared by labeling a portion of goat anti-mouse IgG with one of three near IR dyes. […]

Each structure is given as a SMILES string.

Consider five compounds from patent publication US9097667B2, “Fluorescent compounds” (BIOTIUM, INC., priority 2007, dated 2015).

With `COCCOCCOCCOCCOCCOCCOCCOCCOCCOCCOCCOCCN(CCCCCC(=O)ON1C(=O)CCC1=O)C(=O)c1cc2cc(F)c(O)c(F)c2oc1=O` [Compound No. 52], in data set [1], the λabs is listed as 416 nm and the λcm is given as 465 nm.

Consider `COCCOCCOCCOCCOCCOCCOCCOCCOCCOCCOCCOCCOCCOCCOCCOCCOCCOCCOCCOCCOCCOCCOCCOCCN(CCCCCC(=O)ON1C(=O)CCC1=O)C(=O)CCCCCN1c2cc3oc(=O)cc(C(F)(F)F)c3cc2C(CS(=O)(=O)O)=CC1(C)C` [compound 53], for which, in data set [1], the λabs was determined as 430 nm and the λcm was determined as 545 nm.

For `COCCOCCOCCOCCOCCOCCOCCOCCOCCOCCOCCOCCN(CCCCCC(=O)ON1C(=O)CCC1=O)C(=O)Cc1c(C)c2cc(S(=O)(=O)O)c(N)cc2oc1=O` [Compound No. 51], in data set [1], the λabs is listed as 346 nm and the λcm is recorded as 442 nm.

For `COCCOCCOCCOCCOCCOCCOCCOCCOCCOCCOCCN(CCCCCC(=O)ON1C(=O)CCC1=O)C(=O)Cc1c(C)c2ccc(N)cc2oc1=O` [Compound No. 92], the “total fluorescence vs. degree of labeling (DOL)” value in data set [2] is “higher fluorescence quantum yield over a wide of degree of labeling and has less fluorescence quenching when the antibody is at higher degrees of labeling”.

Take `C=C(Cc1c(C)c2ccc(N)cc2oc1=O)N(CCCCCC(=O)ON1C(=O)CCC1=O)CCOCCOCCOCCOCCOCCOCCOCCOCCOCCOCCOCCOC` [compound 50]: in data set [1], the λabs is 353 nm and the λcm is recorded as 442 nm.
